Measurements: US20240132525A1, “BORON […], CO[…], METHODS AND USES THEREOF” (priority 2022, published 2024)

What was measured:
JAK1 = JAK1 (Homo sapiens (Human), UniProt P23458); assay: Biochemical kinase assay (33P-ATP filter-binding), JAK1; settings: Table 3a; read-out: IC50 JAK1
Source text: (§1) Biochemical Kinase Assay Protocol (JAK)
(§2) Reaction Procedure: • 1. […] Detected kinase activity by filter-binding method.

JAK2 = JAK2 (Homo sapiens (Human), UniProt O60674); assay: Biochemical kinase assay (33P-ATP filter-binding), JAK2; settings: Table 3a; read-out: IC50 JAK2
JAK2, sequence (O60674 whole entry, species assumed): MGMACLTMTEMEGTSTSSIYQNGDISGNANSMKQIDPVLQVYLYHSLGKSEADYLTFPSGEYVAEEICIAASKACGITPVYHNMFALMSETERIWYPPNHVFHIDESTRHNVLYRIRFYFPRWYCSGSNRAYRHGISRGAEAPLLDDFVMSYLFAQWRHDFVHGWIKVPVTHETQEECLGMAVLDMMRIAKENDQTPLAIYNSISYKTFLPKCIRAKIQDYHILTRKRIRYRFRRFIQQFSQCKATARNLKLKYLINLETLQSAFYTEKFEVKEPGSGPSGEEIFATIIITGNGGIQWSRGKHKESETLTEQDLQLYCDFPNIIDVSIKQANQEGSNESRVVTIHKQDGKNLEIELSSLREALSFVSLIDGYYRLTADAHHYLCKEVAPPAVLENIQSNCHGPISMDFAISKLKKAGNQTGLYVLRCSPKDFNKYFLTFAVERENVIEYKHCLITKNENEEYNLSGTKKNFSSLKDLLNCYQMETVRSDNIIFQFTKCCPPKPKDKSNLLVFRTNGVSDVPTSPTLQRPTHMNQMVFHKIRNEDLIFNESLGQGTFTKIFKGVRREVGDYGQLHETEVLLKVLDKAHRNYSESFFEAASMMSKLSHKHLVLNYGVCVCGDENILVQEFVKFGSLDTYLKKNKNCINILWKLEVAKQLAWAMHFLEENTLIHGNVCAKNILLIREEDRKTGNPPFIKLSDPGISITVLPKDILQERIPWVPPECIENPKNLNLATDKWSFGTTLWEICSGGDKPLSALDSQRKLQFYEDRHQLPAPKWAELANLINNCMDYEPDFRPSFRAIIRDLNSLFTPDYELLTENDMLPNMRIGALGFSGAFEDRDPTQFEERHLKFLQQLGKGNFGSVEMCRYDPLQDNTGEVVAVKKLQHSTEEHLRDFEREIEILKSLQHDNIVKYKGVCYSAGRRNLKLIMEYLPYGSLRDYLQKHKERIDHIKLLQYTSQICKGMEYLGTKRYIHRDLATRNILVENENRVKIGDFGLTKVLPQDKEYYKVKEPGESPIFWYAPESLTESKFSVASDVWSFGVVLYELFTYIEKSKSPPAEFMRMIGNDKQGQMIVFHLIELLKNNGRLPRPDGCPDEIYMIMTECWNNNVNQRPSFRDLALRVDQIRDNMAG
Source text: as §1, §2

IL-4/pSTAT6 = assay: Cytokine function assay IL-4/pSTAT6 in PBMC; type: cell-based; settings: PBMC, read-out: IC50 IL-4, Table 3a
Experimental: (§3) Cytokine Function Assay Protocols for IL-4/pSTAT6 and GM-CSF/pSTAT5
IL-4/pSTAT6: • PBMC from a healthy donor was plated onto a 96 w plate. Compound was added and incubated for 1 hour (at 37° C.). After 1 hour, cells were stimulated with IL-4 for 15 minutes. Cells were fixed and stained with anti-pSTAT6 antibody. After staining, cells were read on a Beckman-Coulter CytoFLEX.

GM-CSF/pSTAT5 = assay: Cytokine function assay GM-CSF/pSTAT5 in lysed whole blood cells; type: cell-based; settings: Whole blood cell, read-out: IC50 GM-CSF
Experimental: as §3
GM-CSF/pSTAT5: • Whole blood from a healthy donor was lysed to remove red blood cells. Cells were plated onto a 96 well plate. Compound was added and incubated for 1 hour (at 37° C.). After 1 hour, cells were stimulated with GM-CSF for 15 minutes. Cells were fixed and stained with anti-pSTAT5 antibody. After staining, cells were read on a Beckman-Coulter CytoFLEX.

IL-31 = assay: Cytokine function assay for IL-31 in DH82 cells; type: cell-based, canine; settings: Canis lupus familiaris, DH82; Table 3a; read-out: IC50 IL-31
Experimental: Cytokine Function Assay Protocol for IL-31
The protocol for the cytokine function assay for IL-31 is set forth below: • 1. […] After 24 hr, wash with 37° C. pre-warmed PBS (100 uL/well). • 3. Add serum-free MEM, 90 uL per well, 2 hr, 37° C. • 4. Add 10 uL 10×IL-31 (40, 10, 2.5 ug/mL) in duplicate, 5 min, 37° C. • 5. Remove medium, add 60 uL lysis buffer per well. Agitate on a plate shaker (˜350 rpm) for 10 min at RT. • 6. […] Add 6 uL Acceptor Mix, cover with aluminum foil, quickly spin at 1000 rpm, shake at 120 rpm for 2 min, then incubate at RT for 1 hr. • 8. Add 6 uL Donor Mix, cover with aluminum foil, quickly spin at 1000 rpm, shake at 120 rpm for 2 min, then incubate at RT for 1 hr. • 9. Measure the fluorescence using EnVision™ plate reader.

[1] = Dog LM (liver microsome) assay; type: in vitro ADME; settings: Table 3a; predicted clearance as percent of liver blood flow, 1 μM, 1 mg/ml microsomal protein
Summary of the method: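 Pooled Beagle liver microsomes (1 mg/ml protein), compound 1 μM, Tris pH 7.6 with 5 mM MgCl2, 37 °C, started with 1 mM NADPH; parent loss by LC-MS/MS over several time points.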

PDE4B = PDE4B (Homo sapiens (Human), UniProt Q07343); assay: PDE4B inhibition; type: biochemical; settings: Table 3a
PDE4B, sequence (Q07343 whole entry, species assumed): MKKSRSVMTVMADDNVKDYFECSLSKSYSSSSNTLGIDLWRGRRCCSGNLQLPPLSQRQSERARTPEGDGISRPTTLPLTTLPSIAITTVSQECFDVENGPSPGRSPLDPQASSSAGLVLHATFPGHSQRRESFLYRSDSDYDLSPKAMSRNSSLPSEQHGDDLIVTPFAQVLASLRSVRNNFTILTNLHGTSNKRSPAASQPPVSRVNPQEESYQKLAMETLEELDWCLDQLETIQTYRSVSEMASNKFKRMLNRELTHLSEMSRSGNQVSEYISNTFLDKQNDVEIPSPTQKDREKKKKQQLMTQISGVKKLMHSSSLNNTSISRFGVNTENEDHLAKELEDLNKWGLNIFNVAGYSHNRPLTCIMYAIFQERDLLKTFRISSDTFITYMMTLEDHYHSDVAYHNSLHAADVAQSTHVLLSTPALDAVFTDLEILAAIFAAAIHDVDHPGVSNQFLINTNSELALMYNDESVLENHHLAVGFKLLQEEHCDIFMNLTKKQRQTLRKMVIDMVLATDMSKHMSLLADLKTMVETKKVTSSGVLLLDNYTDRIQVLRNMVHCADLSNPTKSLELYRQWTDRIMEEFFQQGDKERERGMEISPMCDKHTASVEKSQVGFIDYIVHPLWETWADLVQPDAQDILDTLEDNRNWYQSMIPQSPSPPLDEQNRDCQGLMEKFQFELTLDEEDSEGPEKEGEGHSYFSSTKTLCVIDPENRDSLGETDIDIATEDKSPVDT

JAK1, sequence (P23458 whole entry, species assumed): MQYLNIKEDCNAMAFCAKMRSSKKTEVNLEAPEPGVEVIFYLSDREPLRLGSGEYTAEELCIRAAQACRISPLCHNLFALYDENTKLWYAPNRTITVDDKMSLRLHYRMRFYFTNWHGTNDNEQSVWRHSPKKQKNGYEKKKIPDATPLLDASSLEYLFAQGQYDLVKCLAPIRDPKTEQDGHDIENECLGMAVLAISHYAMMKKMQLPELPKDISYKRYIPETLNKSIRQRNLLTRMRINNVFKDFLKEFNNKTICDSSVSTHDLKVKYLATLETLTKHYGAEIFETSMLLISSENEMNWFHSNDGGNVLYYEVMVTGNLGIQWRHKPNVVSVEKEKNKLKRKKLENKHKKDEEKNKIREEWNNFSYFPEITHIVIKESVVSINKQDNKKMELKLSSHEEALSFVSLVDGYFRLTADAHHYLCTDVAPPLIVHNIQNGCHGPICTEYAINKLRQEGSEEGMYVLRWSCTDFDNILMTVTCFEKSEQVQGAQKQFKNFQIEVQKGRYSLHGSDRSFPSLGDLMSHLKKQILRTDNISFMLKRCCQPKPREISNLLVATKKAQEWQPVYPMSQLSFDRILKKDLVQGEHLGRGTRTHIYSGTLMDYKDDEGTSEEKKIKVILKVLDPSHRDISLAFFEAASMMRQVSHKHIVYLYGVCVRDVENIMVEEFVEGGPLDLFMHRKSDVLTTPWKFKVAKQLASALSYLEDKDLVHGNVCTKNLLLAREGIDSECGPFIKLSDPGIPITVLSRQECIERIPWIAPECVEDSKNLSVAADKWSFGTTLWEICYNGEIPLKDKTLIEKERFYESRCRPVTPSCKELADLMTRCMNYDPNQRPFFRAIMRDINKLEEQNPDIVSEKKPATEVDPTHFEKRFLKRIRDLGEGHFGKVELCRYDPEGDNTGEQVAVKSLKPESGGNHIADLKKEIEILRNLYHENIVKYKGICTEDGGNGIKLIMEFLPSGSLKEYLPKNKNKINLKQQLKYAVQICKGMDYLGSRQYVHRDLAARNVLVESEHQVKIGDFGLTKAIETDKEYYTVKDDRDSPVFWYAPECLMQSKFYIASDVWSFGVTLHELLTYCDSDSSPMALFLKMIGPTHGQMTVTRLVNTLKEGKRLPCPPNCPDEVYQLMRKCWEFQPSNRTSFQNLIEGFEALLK

Row | Compound | IC50 (JAK1) [nM] | IC50 (JAK2) [nM] | IC50 (IL-4/pSTAT6) [nM] | IC50 (GM-CSF/pSTAT5) [nM] | IC50 (IL-31) [nM] | Dog LM QH [1] [%] | IC50 (PDE4B) [nM]
1 | Cc1cnc(Nc2cc(Cl)c3c(c2)COB3O)nc1NC1CCCC1C#N (racemic) [Example 003, (trans)-2-((2-((7-chloro-1-hydroxy-1,3-dihydrobenzo[c][1,2]oxaborol-5-yl)amino)-5-methylpyrimidin-4-yl)amino)cyclopentane-1-carbonitrile] | 0.7 | 40 | 106 | 1430 | 21.2 | <19.9 | 
2 | Cc1cnc(Nc2cc(Cl)c3c(c2)COB3O)nc1NC1CCCCC1C#N (racemic) [Example 010, (trans)-2-[[2-[(7-chloro-1-hydroxy-1,3dihydrobenzo[c][1,2]oxaboroll-5-yl)amino]-5-methyl-pyrimidin-4-yl]amino]cyclohexane-1-carbonitrile] | 0.7 | 19.3 | 71.7 | 1020 | 18.1 | <19.9 | 
3 | Cc1cnc(Nc2cc3c(c(C(F)(F)F)c2)B(O)OC3)nc1NC1CCCCC1C#N (racemic) [Example 011, (trans)-2-((2-((1-hydroxy-7-(trifluoromethyl)-1,3-dihydrobenzo[c][1,2]oxaborol-5-yl)amino)-5-methylpyrimidin-4-yl)amino)cyclohexane-1-carbonitrile] | 0.9 | 37.5 | 159 | 1150 | 33.6 | <19.9 | 
4 | Cc1cnc(Nc2ccc3c(c2)COB3O)nc1NC1COCCC1C#N (racemic) [Example 026, (trans)-3-[[2-[(1-hydroxy-3H-2,1-benzoxaborol-5-yl)amino]-5-methyl-pyrimidin-4-yl]amino]tetrahydropyran-4-carbonitrile] | 0.5 | 7 | 91.9 | 2660 | 64.6 | <19.9 | 
5 | Cc1cnc(Nc2cc(Cl)c3c(c2)COB3O)nc1NC1COCCC1C#N (racemic) [Example 031, (trans)-3-((2-((7-chloro-1-hydroxy-1,3-dihydrobenzo[c][1,2]oxaborol-5-yl)amino)-5-methylpyrimidin-4-yl)amino)tetrahydro-2H-pyran-4-carbonitrile] | 1.2 | 40.8 | 67.5 | 3150 | 27.6 | <19.9 | 
6 | Cc1cnc(Nc2ccc3c(c2)COB3O)nc1N[C@@H]1CCC[C@H]1C#N (relative stereo) [Example 001, (trans)-2-((2-((1-hydroxy-1,3-dihydrobenzo[c][1,2]oxaborol-5-yl)amino)-5-methylpyrimidin-4-yl)amino)cyclopentane-1-carbonitrile] | 1.1 | 24.7 | 173 |  |  | 39.7 | 362
7 | Cc1cnc(Nc2ccc3c(c2)COB3O)nc1N[C@@H]1CCCC[C@H]1C#N (relative stereo) [Example 008, (trans)2-[[2-[(1-hydroxy-3H-2,1-benzoxaborol-5-yl)amino]-5-methyl-pyrimidin-4-yl]amino]cyclohexane-1-carbonitrile] | 0.3 | 3.4 | 95.9 | 774 | 40.2 | <19.9 | 
8 | N#C[C@@H]1CCCC[C@H]1Nc1nc(Nc2ccc3c(c2)COB3O)ncc1Cl (relative stereo) [Example 017, (trans)-2-((5-chloro-2-((1-hydroxy-1,3-dihydrobenzo[c][1,2]oxaborol-5-yl)amino)pyrimidin-4-yl)amino)cyclohexane-1-carbonitrile] | 0.4 | 4.2 | 233 | 10000 | 35.4 | <19.9 | 
9 | Cc1cnc(Nc2cc(C)c3c(c2)COB3O)nc1N[C@@H]1COCC[C@H]1C#N (relative stereo) [Example 027, (trans)-3-((2-((1-hydroxy-7-methyl-1,3-dihydrobenzo[c][1,2]oxaborol-5-yl)amino)-5-methylpyrimidin-4-yl)amino)tetrahydro-2H-pyran-4-carbonitrile] | 0.6 | 3.5 | 79.9 | 1200 | 81.3 | 30.1 | 
10 | N#C[C@@H]1CCOC[C@H]1Nc1nc(Nc2cc(Cl)c3c(c2)COB3O)ncc1C(F)(F)F (relative stereo) [Example 049, (trans)-3-((2-((7-chloro-1-hydroxy-1,3-dihydrobenzo[c][1,2]oxaborol-5-yl)amino)-5-(trifluoromethyl)pyrimidin-4-yl)amino)tetrahydro-2H-pyran-4-carbonitrile] | 8.2 | 13.3 | 173 |  |  | 39.7 | 362
11 | Cc1cnc(Nc2cc(Cl)c3c(c2)COB3O)nc1N[C@@H]1CCC[C@H]1C#N (single isomer, unassigned) [Example 003a, (trans)-2-((2-((7-chloro-1-hydroxy-1,3-dihydrobenzo[c][1,2]oxaborol-5-yl)amino)-5-methylpyrimidin-4-yl)amino)cyclopentane-1-carbonitrile] | 0.7 | 3.7 | 93.3 | 2220 | 9.2 | <19.9 | 
